Assays:
USP30 = biological target: T1, USP30 (Mus musculus, UniProt Q3UN04); assay: USP30 brain tissue target engagement assay (TE ex vivo); format: in vivo; details: 2 mg/kg iv, n = 2 avg
T1 construct: in either brain or kidney tissue samples from compound-dosed animals; from tissue; b325 calls 'TE ex vivo' a kidney tissue assay
Procedure: 50 to 100 mg of tissue was homogenised in 3× volume of lysis buffer (50 mM Tris-base, pH 7.5, 50 mM NaCl, 1% NP-40/Igepal CA-630, 2 mM MgCl2, 10% Glycerol, 5 mM beta-mercaptoethanol, cOmplete mini tablets EDTA free (Roche), PhosStop tablets (Roche)) using the Retch Mixer Mill (MM400). The lysates were cleared and protein quantified using the Bradford Protein assay (Pierce). Lysate containing 60 μg protein was incubated with a final conc of 24 μM of HA-Ahx-Ahx-Ub-VME probe for 60 mins at room temperature. The reaction was stopped by addition of 5×SDS sample loading buffer and proteins separated by SDS-PAGE and western blotting. USP30 was detected using an anti-USP30 Sheep S746D antibody (MRC PPU Reagents and Services) and a rabbit anti sheep secondary IgG (H+L) horseradish peroxidase conjugated (Thermo #31480) and visualised using ECL reagent (GE #RPN2109) on a GE LAS4000 imager. Target engagement was measured by quantitation of the bands corresponding to USP30 and USP30 bound to the Ub-VME probe and expression of this proportion compared to vehicle treated control.
MDR1-MDCK (Madin-Darby Canine Kidney cell monolayer) (in vitro) flux assay. Cell TE WB: USP30 endogenous cellular target engagement western blot (WB) assay. Assays the activity of compounds against USP30 in cells using an irreversible activity probe to monitor USP30 activity. […]

Cathepsin L = Cathepsin L (Homo sapiens, UniProt P07711); assay: Cathepsin IC50, Cathepsin L; format: biochemical
Sequence of Cathepsin L (P07711 114-333, species assumed): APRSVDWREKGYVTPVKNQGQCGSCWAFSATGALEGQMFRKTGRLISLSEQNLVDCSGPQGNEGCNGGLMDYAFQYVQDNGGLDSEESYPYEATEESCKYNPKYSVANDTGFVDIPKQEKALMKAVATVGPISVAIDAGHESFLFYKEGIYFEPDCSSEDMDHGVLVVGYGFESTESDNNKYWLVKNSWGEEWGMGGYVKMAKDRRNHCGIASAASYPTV

UUO injured kidneys = assay: UUO model of tubulointerstitial fibrosis; format: in vivo, C57BL/6 mice; details: 10 days
Excerpt: (a) Bleomycin-induced lung fibrosis model, which is a leading preclinical in vivo model of Idiopathic Pulmonary Fibrosis. [Kobayashi et al, 2016, J Immunol, 197(2):504-516] (b) Diet-induced model of NAFLD and glucose homeostasis. [Nishida et al, 2013, Lab Invest; February; 93(2):230-41] (c) MPTP Model of Parkinson's Disease, which is a commonly used paradigm for looking at neurodegeneration in the dopaminergic system of the brain which is triggered by chemically-induced mitochondrial dysfunction. [Karuppagouner et al, 2014, Sci Rep. 2014 May 2; 4:4874] (d) Ndufs4KO Leigh syndrome model. [Kruse et al, 2008, Cell Metab. April; 7(4):312-20] (e) Aged rodent model: effects on hippocampal, cognitive and motor function. [Kobilo et al, 2014, Learn Mem. January 17; 21(2):119-26; Creed et al, 2019, Neuroscience. June 15; 409:169-179; Van Skike et al, 2020, Aging Cell. 19; e13057]. Example 1 was assessed in this model. (f) UUO causes renal injury characterised by tubular cell injury, interstitial inflammation and fibrosis. It serves as a model of irreversible post-renal acute kidney injury (AKI). […]
Example 1 was assessed in the UUO model to determine the ability of the compound to attenuate progressive tubulointerstitial fibrosis and chronic kidney disease (CKD). […]

T1 sequence (Q3UN04 whole entry): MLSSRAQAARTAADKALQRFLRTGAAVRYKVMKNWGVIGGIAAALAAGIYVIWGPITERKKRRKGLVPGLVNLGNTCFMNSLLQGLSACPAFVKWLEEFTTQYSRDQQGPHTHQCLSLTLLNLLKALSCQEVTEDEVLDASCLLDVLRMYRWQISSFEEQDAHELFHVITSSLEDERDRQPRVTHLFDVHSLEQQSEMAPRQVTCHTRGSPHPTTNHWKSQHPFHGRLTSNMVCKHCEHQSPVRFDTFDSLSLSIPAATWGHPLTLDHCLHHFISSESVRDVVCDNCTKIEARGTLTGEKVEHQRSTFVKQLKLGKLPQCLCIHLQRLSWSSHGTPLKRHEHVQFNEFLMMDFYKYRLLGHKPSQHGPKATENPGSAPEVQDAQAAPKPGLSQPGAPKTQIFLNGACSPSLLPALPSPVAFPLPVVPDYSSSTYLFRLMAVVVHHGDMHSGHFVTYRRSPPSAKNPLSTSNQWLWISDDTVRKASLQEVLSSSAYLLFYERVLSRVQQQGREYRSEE

Row | SMILES | TE ex vivo Mouse brain (%) at 15 min (USP30; 15 min) [%] | TE ex vivo Mouse brain (%) at 60 min (USP30; 60 min) [%] | IC50 (Cathepsin L) [µM] | α-SMA levels in UUO injured kidneys v vehicle treated controls (UUO injured kidneys; 15, 5 and 1.5 mg/kg oral BID) | collagen deposition (picrosirius red staining) in ligated kidneys (UUO injured kidneys; 15, 5 and 1.5 mg/kg p.o. BID)
1 | C[C@@H]1C[C@@H](NC(=O)c2ncc(-c3cccc(OC(F)(F)F)c3)o2)CN1C#N [Example 2, N-((3R,5R)-1-Cyano-5-methylpyrrolidin-3-yl)-5-(3-(trifluoromethoxy)phenyl)oxazole-2-carboxamide] | 68 | 25 | – | – | –
2 | COC[C@@H]1C[C@@H](NC(=O)c2ncc(-c3cccc(OC(F)(F)F)c3)o2)CN1C#N [Example 1, N-((3R,5S)-1-Cyano-5-(methoxymethyl)pyrrolidin-3-yl)-5-(3-(trifluoromethoxy)phenyl)oxazole-2-carboxamide] | – | – | 17.7 | statistical reduction in α-SMA levels | statistically reduced collagen deposition

Reference: patent US20230119013A1, “N-CYANOPYRROLIDINES WITH ACTIVITY AS USP30 INHIBITORS” (MISSION THERAPEUTICS LIMITED, priority 2020, published 2023)
